# Reference: ChEMBL document CHEMBL1201862, “PubChem BioAssay data set” (2004)
# The source made the active and inactive calls.
# How the values were obtained:
# [1] = target: T1, Ubiquitin-conjugating enzyme E2 N (Homo sapiens, UniProt P61088); format: functional;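 also: Dose-response confirmation in a TR-FRET assay detecting UBC13-driven polyubiquitin chain formation, inhibition measured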
# T1 sequence (P61088 whole entry): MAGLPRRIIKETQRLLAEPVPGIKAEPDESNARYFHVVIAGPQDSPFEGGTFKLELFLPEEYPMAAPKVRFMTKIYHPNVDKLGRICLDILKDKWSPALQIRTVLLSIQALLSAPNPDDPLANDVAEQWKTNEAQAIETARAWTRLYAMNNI
# [2] = target: T2, DNA repair protein RAD52 homolog (Homo sapiens, UniProt P43351); format: functional, biochemical
# T2 sequence (P43351 whole entry): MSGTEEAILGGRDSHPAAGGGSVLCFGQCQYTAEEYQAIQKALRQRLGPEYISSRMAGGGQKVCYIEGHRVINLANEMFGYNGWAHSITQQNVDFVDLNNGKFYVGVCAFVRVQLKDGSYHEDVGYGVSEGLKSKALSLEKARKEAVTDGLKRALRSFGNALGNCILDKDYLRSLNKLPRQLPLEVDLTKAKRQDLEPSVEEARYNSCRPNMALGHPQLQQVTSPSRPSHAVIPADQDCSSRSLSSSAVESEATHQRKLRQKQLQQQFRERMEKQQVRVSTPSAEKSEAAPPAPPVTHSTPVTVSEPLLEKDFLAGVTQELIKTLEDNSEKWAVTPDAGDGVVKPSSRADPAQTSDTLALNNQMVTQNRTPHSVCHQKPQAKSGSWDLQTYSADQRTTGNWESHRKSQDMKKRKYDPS
# [3] = Counterscreen for inhibitors of Trypanosoma brucei methionyl tRNA synthetase (MetRS): Luminescence-based cell-based high throughput dose response assay to identify compounds that are cytotoxic to Jurkat human T lymphocyte cells.; format: functional
# [4] = target: T3, Methionyl-tRNA synthetase, putative (Trypanosoma brucei brucei, UniProt Q38C91); format: functional, Trypanosoma brucei brucei strain 927/4 GUTat10.1
# T3 sequence (Q38C91 whole entry): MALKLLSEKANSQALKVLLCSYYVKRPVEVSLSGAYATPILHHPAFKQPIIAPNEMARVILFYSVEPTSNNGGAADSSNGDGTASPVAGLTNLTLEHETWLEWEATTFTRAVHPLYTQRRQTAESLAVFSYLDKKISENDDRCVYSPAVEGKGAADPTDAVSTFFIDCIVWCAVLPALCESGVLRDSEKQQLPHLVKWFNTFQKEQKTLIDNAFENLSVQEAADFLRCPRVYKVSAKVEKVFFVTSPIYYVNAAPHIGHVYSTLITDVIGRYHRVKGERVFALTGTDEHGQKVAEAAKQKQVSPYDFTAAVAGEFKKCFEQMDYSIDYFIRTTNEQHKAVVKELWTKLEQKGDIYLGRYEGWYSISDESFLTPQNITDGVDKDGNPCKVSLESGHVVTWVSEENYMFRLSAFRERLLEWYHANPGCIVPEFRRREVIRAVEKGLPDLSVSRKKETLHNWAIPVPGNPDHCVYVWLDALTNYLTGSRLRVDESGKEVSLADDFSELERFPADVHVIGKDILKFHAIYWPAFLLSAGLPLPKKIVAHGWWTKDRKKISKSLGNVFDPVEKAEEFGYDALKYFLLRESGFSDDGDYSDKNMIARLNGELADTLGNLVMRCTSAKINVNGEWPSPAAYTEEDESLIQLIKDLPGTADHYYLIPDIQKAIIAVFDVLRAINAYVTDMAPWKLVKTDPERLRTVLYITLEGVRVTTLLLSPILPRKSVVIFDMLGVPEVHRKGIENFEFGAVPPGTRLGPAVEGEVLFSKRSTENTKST
# [5] = target: Luciferin 4-monooxygenase (Photinus pyralis, UniProt P08659); assay: inhibition of purified Photinus pyralis luciferase – biochemical, luminescence, dose response (AID 1891)
# [6] = target: FAD-linked sulfhydryl oxidase ALR (Homo sapiens, UniProt P55789); assay: ALR-catalysed DTT oxidation blockers – biochemical, H2O2 detection, luminescence, cherry-pick, dose response (AID 493248)
# [7] = target: T3, Methionyl-tRNA synthetase, putative; format: functional, Trypanosoma brucei brucei strain 927/4 GUTat10.1; remark: listed apart in the source
# [8] = Luminescence Cell-Based Dose Confirmation HTS to Identify Inhibitors of Platelet Dense Granule Release. [Related pubchem assays: 1663 (Primary HTS), 1678 (Summary of Project)]; format: functional
# Prothrombin = Prothrombin (Homo sapiens, UniProt P00734); assay: Thrombin 1536 HTS Dose Response Confirmation. [Related pubchem assays: 1046 (Thrombin 1536 HTS; hits were confirmed in this assay)]; format: functional
# [9] = target: T4, Sentrin-specific protease 6 (Homo sapiens, UniProt Q9GZR1); format: functional;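 also: Luminescence-based dose-response confirmatory assay of SENP6 inhibition, following up an ultra-high-throughput screen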
# T4 sequence (Q9GZR1 whole entry): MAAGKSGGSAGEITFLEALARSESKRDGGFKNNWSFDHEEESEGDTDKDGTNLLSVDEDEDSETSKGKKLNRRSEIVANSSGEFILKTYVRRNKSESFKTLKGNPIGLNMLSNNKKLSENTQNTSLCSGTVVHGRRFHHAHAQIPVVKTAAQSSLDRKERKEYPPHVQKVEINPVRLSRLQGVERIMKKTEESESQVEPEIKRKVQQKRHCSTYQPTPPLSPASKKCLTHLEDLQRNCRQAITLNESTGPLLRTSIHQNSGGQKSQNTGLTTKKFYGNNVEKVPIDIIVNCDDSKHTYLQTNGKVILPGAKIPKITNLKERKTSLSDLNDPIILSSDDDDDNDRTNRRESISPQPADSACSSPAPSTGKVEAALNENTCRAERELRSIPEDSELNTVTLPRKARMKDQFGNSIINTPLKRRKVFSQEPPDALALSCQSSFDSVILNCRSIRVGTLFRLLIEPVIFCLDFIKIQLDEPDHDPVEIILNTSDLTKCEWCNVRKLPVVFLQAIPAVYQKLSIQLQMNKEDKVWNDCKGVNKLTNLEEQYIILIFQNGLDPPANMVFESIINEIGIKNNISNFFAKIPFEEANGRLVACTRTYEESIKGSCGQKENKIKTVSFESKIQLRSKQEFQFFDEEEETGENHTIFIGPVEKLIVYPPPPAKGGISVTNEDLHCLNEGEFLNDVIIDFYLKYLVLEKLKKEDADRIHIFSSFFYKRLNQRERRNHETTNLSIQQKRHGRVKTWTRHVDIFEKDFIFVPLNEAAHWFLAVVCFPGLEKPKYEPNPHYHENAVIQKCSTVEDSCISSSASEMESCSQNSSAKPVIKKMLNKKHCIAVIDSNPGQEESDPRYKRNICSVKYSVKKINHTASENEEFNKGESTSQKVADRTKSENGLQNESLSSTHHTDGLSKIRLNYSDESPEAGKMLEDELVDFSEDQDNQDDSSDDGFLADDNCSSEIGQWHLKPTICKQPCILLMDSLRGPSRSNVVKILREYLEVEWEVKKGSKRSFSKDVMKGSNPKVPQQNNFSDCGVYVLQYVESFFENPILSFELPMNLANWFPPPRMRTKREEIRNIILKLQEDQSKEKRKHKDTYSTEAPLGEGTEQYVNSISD
# Caspase-3 = target: T5, Caspase-3 (Homo sapiens, UniProt P42574); format: functional;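 also: Dose-response selectivity test against caspase-3 for candidate inhibitors of sentrin-specific proteases (SENPs)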
# T5 sequence (P42574 whole entry): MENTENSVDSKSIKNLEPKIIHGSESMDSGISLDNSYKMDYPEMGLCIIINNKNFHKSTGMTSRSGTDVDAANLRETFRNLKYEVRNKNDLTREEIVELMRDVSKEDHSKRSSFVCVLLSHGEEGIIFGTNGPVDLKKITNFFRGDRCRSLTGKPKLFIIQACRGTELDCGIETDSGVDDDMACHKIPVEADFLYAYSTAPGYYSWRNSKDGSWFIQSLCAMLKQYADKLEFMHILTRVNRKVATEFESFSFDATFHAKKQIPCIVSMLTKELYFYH
# [10] = target: T6, Sentrin-specific protease 8 (Homo sapiens, UniProt Q96LD8); format: functional;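 also: luminescence read-out of SENP8 inhibition, dose-response confirmation following an ultra-high-throughput screen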
# T6 sequence (Q96LD8 whole entry): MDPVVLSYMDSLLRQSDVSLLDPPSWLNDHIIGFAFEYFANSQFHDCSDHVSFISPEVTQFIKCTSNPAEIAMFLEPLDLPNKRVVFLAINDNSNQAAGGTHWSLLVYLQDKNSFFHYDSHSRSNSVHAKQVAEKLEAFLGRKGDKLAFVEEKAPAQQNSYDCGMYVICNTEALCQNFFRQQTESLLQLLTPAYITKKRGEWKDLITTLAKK
# [11] = target: T7, Sentrin-specific protease 7 (Homo sapiens, UniProt Q9BQF6); format: functional;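 also: Luminescence-based dose-response confirmation of ultra-high-throughput screening hits, measuring inhibition of SENP7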
# T7 sequence (Q9BQF6 whole entry): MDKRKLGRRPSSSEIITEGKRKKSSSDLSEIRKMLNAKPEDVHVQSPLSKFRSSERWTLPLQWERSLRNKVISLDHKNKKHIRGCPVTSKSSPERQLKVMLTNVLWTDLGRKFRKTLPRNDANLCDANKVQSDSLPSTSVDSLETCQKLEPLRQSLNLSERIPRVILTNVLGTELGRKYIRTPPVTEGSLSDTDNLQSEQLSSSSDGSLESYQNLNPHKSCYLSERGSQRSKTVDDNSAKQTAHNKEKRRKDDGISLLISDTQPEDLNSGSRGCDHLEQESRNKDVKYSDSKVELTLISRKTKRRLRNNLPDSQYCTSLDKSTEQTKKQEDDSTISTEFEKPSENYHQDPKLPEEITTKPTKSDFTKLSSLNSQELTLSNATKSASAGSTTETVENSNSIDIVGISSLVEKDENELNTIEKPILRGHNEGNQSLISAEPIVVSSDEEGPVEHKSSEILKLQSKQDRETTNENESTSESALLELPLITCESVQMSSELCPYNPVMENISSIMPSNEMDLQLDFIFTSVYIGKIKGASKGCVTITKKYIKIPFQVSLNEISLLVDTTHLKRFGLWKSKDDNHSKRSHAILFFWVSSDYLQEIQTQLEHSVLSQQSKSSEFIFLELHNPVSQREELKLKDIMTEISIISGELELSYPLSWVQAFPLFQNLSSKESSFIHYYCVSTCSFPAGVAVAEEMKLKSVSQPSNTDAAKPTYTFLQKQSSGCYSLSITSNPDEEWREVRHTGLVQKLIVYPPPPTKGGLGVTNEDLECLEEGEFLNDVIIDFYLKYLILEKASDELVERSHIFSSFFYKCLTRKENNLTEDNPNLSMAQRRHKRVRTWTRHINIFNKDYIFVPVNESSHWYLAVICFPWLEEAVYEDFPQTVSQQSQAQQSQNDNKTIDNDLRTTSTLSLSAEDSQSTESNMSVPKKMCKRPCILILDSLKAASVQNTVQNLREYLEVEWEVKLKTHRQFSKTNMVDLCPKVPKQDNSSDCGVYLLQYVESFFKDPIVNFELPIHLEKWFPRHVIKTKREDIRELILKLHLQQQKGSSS
# [12] = Luminescence Cell-Based Dose Response HTS to Identify Activators of Luciferase Translation or Activity in H4 […] Cells. [Related pubchem assays: 1829 (Project Summary), 1814 (Primary HTS)]; format: functional
# H4 = assay: Luminescence Cell-Based Dose Response HTS to Identify Activators of 5'UTR Stem-Loop Driven Prion Protein mRNA Translation in H4 Neuroglioblastoma Cells. [Related pubchem assays: 1829 (Project Summary), 1814 (Primary HTS)]; format: functional; settings: Homo sapiens
# [13] = OVCAR8 cell viability loss – plate reader, dry powder samples, PAX8 project, dose response (AID 743197); format: functional, cell-based; settings: OVCAR-8
# Paired box protein Pax-8 = Paired box protein Pax-8 (Homo sapiens, UniProt Q06710); assay: PAX8 transcriptional activity inhibition in RMG-I – RMG-I cells, luciferase, cherry-pick, dose response (AID 687027); format: functional, cell-based;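 also: luciferase reporter driven by Pax8 target thyroperoxidase promoter measured by SteadyGlo luminescence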
# Chain of Paired box protein Pax-8 (Q06710 whole entry): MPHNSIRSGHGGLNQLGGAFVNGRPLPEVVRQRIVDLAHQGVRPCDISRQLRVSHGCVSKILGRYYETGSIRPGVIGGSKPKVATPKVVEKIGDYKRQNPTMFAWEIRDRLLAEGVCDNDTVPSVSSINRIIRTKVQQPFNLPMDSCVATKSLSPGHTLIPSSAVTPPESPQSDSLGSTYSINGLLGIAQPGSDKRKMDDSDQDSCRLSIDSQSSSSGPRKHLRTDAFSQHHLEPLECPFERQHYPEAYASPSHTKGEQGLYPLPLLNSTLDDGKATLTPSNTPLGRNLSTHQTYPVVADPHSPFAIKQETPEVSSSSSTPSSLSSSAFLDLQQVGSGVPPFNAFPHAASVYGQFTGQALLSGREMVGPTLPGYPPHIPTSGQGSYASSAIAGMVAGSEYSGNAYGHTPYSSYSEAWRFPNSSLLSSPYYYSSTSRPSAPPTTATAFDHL
# Chain of Luciferin 4-monooxygenase (P08659 whole entry): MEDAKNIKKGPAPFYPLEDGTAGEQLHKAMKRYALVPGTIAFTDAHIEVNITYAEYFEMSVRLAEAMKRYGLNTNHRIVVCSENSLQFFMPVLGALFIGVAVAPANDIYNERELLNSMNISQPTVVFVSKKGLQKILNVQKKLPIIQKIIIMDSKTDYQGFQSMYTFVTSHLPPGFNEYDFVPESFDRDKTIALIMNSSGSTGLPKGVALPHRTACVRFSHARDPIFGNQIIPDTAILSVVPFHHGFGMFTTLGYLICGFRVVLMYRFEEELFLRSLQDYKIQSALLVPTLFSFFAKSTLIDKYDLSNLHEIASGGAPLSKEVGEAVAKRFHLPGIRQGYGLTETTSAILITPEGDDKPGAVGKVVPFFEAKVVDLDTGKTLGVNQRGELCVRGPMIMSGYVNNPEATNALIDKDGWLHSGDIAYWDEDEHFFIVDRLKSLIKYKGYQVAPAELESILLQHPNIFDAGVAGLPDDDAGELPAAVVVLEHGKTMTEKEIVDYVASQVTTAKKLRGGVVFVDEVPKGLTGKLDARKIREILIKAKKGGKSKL
# Chain of FAD-linked sulfhydryl oxidase ALR (P55789 whole entry): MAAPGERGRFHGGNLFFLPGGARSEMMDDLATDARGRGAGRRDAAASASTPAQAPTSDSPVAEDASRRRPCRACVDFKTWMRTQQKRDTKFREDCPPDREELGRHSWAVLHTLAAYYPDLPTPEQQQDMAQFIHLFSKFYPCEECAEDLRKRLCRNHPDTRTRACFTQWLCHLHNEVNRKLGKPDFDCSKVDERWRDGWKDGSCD
compound,measurement,setting,value
OCCN1CCN(CC/C=C2/c3ccccc3Sc3ccc(C(F)(F)F)cc32)CC1,IC50,[1],> 20 µM (inactive)
same,AC50,[2],21.2 µM (active)
C/C(=C1/SC(=S)N(CCC(=O)O)C1=O)c1ccc(O)cc1,IC50,[3],83.3 µM (inactive)
same,IC50,[4],9.47 µM (active)
same,EC50,[5],> 112 µM (not active)
same,AC50,[6],4.14 µM (active)
same,IC50,[7],16.6 µM (inactive)
same,EC50,[8],> 112 µM (not active)
S=C(NCc1cccs1)NCC1CCCO1 (stereo not drawn),IC50,Prothrombin,> 50 µM (not active)
Oc1ccccc1-c1csc(-c2ccccc2)n1,IC50,[9],7.62 µM (active)
same,IC50,Caspase-3,16.2 µM (active)
same,IC50,[10],10.7 µM (active)
same,IC50,[11],3.44 µM (active)
CCOC(=O)c1sc(Nc2ccccc2Cl)nc1C,IC50,[9],19.8 µM (active)
same,EC50,[12],1.18 µM (active)
same,IC50,Caspase-3,26.6 µM (active)
same,IC50,[10],20.3 µM (active)
same,IC50,[11],8.78 µM (active)
same,EC50,H4,43.9 µM (active)
Cc1ccccc1C(=O)Oc1ccc2ccc(O)cc2c1,IC50,[9],10.4 µM (active)
same,IC50,Caspase-3,35.4 µM (active)
same,IC50,[10],12.1 µM (active)
same,IC50,[11],4.59 µM (active)
Cc1ccc(NC(=O)c2ccc3c(c2)OCO3)cc1Cl,IC50,[9],5.35 µM (active)
same,IC50,Caspase-3,14 µM (active)
same,IC50,[10],> 100 µM (inactive)
same,IC50,[11],4.44 µM (active)
CCOc1ccc(C(=O)NCC(=O)OC(C)C(=O)NCc2ccco2)cc1OCC (stereo not drawn),IC50,Prothrombin,> 50 µM (not active)
COc1ccc(CNc2nc(-c3cccnc3)nn2C(=O)c2ccco2)cc1,IC50,Prothrombin,1.19 µM (active)
CC(C)(Oc1ccc(Cl)cc1)C(=O)OCc1nc(O)c2sccc2n1,IC50,[3],83.3 µM (inactive)
CC(C)(Oc1ccc(Cl)cc1)C(=O)OCc1nc2ccsc2c(=O)[nH]1,IC50,[4],9.89 µM (active)
same,IC50,[7],21.6 µM (inactive)
CC(C)C[C@@H]1CN=C(N)N1C[C@@H]1CCCN1C[C@@H](C(C)C)N1C[C@@H](Cc2ccccc2)N(CCc2ccc(Cl)c(Cl)c2)C1=N,AC50,[2],16.7 µM (active)
O=C(NCc1cc(Cl)cc(Cl)c1)c1ccc2[nH]c([C@H]3C[C@H](O)[C@@H](CO)O3)nc2c1,IC50,[3],83.3 µM (inactive)
same,IC50,[4],13.5 µM (inactive)
same,IC50,[7],23.8 µM (inactive)
COc1ccc(NC(=O)Nc2ccc3c(c2)C(=O)N([C@@H](C)CO)C[C@@H](C)[C@@H](CN(C)Cc2ccc(Cl)c(Cl)c2)OCCCC[C@@H](C)O3)cc1,AC50,[13],65.4 µM (active)
same,AC50,Paired box protein Pax-8,14.1 µM (active)
